Measured values reported in PMC5460133 (Scientific Reports, 2017).

How the values were obtained:
Sb-PDE [1] = tested on: T1, Sb-PDE; format: biochemical, Sphingobium sp. TCM1
T1 construct: native enzyme purified from Sphingobium sp; TCM1; signal peptide removed; mature 413 residues, N-terminus EFVTQSDQRPP (residues 29-39 of 441); homodimer, 116 kDa; zinc-containing; PHP superfamily

Sb-PDE [2] = tested on: T1, Sb-PDE; format: biochemical, Sphingobium sp. TCM1; remark: listed apart in the source

Row | SMILES | Km (Sb-PDE [1]) [mM] | K i (Sb-PDE [2]) [mM]
1 | O=[N+]([O-])c1ccc(OP(=O)(O)Oc2ccc([N+](=O)[O-])cc2)cc1 [BpNPP] | 6.1 ± 1.2 | 12.5 ± 3.1
2 | O=[N+]([O-])c1ccc(OP(=O)(O)O)cc1 [pNPP] | 1.5 ± 0.2 | 
